Data as given in PubChem BioAssay (NCI).
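Growth conditions: 96-well plates. Treatment: test compound, 48 hours, 5 concentrations. Analysis: linear interpolation between bracketing concentrations; unreached endpoints set to highest concentration. Abbreviation: GI50, concentration required for 50% inhibition of growth. The concentration for full growth arrest is given as TGI.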

Experiments:
Assay in all cases: inhibition of tumour cell growth, NCI panel, 48 h
[1] = test system: 786-0 renal
[2] = test system: A498 renal
[3] = test system: A549 NSCLC
[4] = test system: ACHN renal
[5] = test system: BT-549 breast
[6] = test system: CAKI-1 renal
[7] = test system: CCRF-CEM leukemia
[8] = test system: COLO 205 colon
[9] = test system: DU-145 prostate
[10] = test system: EKVX NSCLC
[11] = test system: HCC-2998 colon
[12] = test system: HCT-116 colon
[13] = test system: HCT-15 colon
[14] = test system: HL-60(TB) leukemia
[15] = test system: HOP-62 NSCLC
[16] = test system: HOP-92 NSCLC
[17] = test system: HS 578T breast
[18] = test system: HT29 colon
[19] = test system: IGROV1 ovarian
[20] = test system: K-562 leukemia
[21] = test system: KM12 colon
[22] = test system: LOX IMVI melanoma
[23] = test system: M14 melanoma
[24] = test system: MALME-3M melanoma
[25] = test system: MCF7 breast
[26] = test system: MDA-MB-231 breast
[27] = test system: MOLT-4 leukemia
[28] = test system: NCI-H226 lung
[29] = test system: NCI-H23 lung
[30] = test system: NCI-H460 lung
[31] = test system: NCI-H522 lung
[32] = test system: NCI/ADR-RES ovarian
[33] = test system: OVCAR-3 ovarian
[34] = test system: OVCAR-4 ovarian
[35] = test system: OVCAR-5 ovarian
[36] = test system: OVCAR-8 ovarian
[37] = test system: PC-3 prostate
[38] = test system: RPMI-8226 leukemia
[39] = test system: RXF 393 renal
[40] = test system: SF-268 CNS
[41] = test system: SF-295 CNS
[42] = test system: SF-539 CNS
[43] = test system: SK-MEL-2 melanoma
[44] = test system: SK-MEL-28 melanoma
[45] = test system: SK-MEL-5 melanoma
[46] = test system: SK-OV-3 ovarian
[47] = test system: SN12C renal
[48] = test system: SNB-19 CNS
[49] = test system: SNB-75 CNS
[50] = test system: SR leukemia
[51] = test system: SW-620 colon
[52] = test system: T-47D breast
[53] = test system: TK-10 renal
[54] = test system: U251 CNS
[55] = test system: UACC-257 melanoma
[56] = test system: UACC-62 melanoma
[57] = test system: UO-31 renal

## CSCCC(NC(=O)CNC(=O)C(CC(=O)O)NC(=O)C(NC(=O)C(NC(=O)C(NC(=O)CNC(=O)C(CCC(N)=O)NC(=O)C(CCSC)NC(=O)C(CC(=O)O)NC(=O)C(C)NC(=O)C(C)NC(=O)C(NC(=O)C(CO)NC(=O)C(N)CC(C)C)C(C)O)C(C)C)C(C)C)C(C)O)C(=O)NC(C)C(=O)NC(CO)C(=O)NCC(=O)NC(CC(C)C)C(=O)NC(CC(=O)O)C(=O)NC(CCCCN)C(=O)NC(CC(=O)O)C(=O)NC(Cc1ccc(O)cc1)C(=O)NC(CC(C)C)C(=O)NC(CCCCN)C(=O)N1CCCC1C(=O)NC(CC(=O)O)C(=O)NC(CC(=O)O)C(=O)O (centres undefined)
[1]
  GI50: > 82.5 µM
  TGI: > 82.5 µM
[2]
  GI50: > 82.5 µM
  TGI: > 82.5 µM
[3]
  GI50: > 82.5 µM
  TGI: > 82.5 µM
[4]
  GI50: > 82.5 µM
  TGI: > 82.5 µM
[5]
  GI50: > 82.5 µM
  TGI: > 82.5 µM
[6]
  GI50: > 82.5 µM
  TGI: > 82.5 µM
[7]
  GI50: > 82.5 µM
  TGI: > 82.5 µM
[8]
  GI50: > 82.5 µM
  TGI: > 82.5 µM
[9]
  GI50: > 82.5 µM
  TGI: > 82.5 µM
[10]
  GI50: > 82.5 µM
  TGI: > 82.5 µM
[11]
  GI50: > 82.5 µM
  TGI: > 82.5 µM
[12]
  GI50: > 82.5 µM
  TGI: > 82.5 µM
[13]
  GI50: > 82.5 µM
  TGI: > 82.5 µM
[14]
  GI50: > 82.5 µM
  TGI: > 82.5 µM
[15]
  GI50: > 82.5 µM
  TGI: > 82.5 µM
[16]
  GI50: > 82.5 µM
  TGI: > 82.5 µM
[17]
  GI50: > 82.5 µM
  TGI: > 82.5 µM
[18]
  GI50: > 82.5 µM
  TGI: > 82.5 µM
[19]
  GI50: > 82.5 µM
  TGI: > 82.5 µM
[20]
  GI50: > 82.5 µM
  TGI: > 82.5 µM
[21]
  GI50: > 82.5 µM
  TGI: > 82.5 µM
[22]
  GI50: > 82.5 µM
  TGI: > 82.5 µM
[23]
  GI50: > 82.5 µM
  TGI: > 82.5 µM
[24]
  GI50: > 82.5 µM
  TGI: > 82.5 µM
[25]
  GI50: > 82.5 µM
  TGI: > 82.5 µM
[26]
  GI50: > 82.5 µM
  TGI: > 82.5 µM
[27]
  GI50: > 82.5 µM
  TGI: > 82.5 µM
[28]
  GI50: > 82.5 µM
  TGI: > 82.5 µM
[29]
  GI50: > 82.5 µM
  TGI: > 82.5 µM
[30]
  GI50: > 82.5 µM
  TGI: > 82.5 µM
[31]
  GI50: > 82.5 µM
  TGI: > 82.5 µM
[32]
  GI50: > 82.5 µM
  TGI: > 82.5 µM
[33]
  GI50: > 82.5 µM
  TGI: > 82.5 µM
[34]
  GI50: > 82.5 µM
  TGI: > 82.5 µM
[35]
  GI50: > 82.5 µM
  TGI: > 82.5 µM
[36]
  GI50: > 82.5 µM
  TGI: > 82.5 µM
[37]
  GI50: > 82.5 µM
  TGI: > 82.5 µM
[38]
  GI50: > 82.5 µM
  TGI: > 82.5 µM
[39]
  GI50: > 82.5 µM
  TGI: > 82.5 µM
[40]
  GI50: > 82.5 µM
  TGI: > 82.5 µM
[41]
  GI50: > 82.5 µM
  TGI: > 82.5 µM
[42]
  GI50: > 82.5 µM
  TGI: > 82.5 µM
[43]
  GI50: > 82.5 µM
  TGI: > 82.5 µM
[44]
  GI50: > 82.5 µM
  TGI: > 82.5 µM
[45]
  GI50: > 82.5 µM
  TGI: > 82.5 µM
[46]
  GI50: > 82.5 µM
  TGI: > 82.5 µM
[47]
  GI50: > 82.5 µM
  TGI: > 82.5 µM
[48]
  GI50: > 82.5 µM
  TGI: > 82.5 µM
[49]
  GI50: > 82.5 µM
  TGI: > 82.5 µM
[50]
  GI50: > 82.5 µM
  TGI: > 82.5 µM
[51]
  GI50: > 82.5 µM
  TGI: > 82.5 µM
[52]
  GI50: > 82.5 µM
  TGI: > 82.5 µM
[53]
  GI50: > 82.5 µM
  TGI: > 82.5 µM
[54]
  GI50: > 82.5 µM
  TGI: > 82.5 µM
[55]
  GI50: > 82.5 µM
  TGI: > 82.5 µM
[56]
  GI50: > 82.5 µM
  TGI: > 82.5 µM
[57]
  GI50: > 82.5 µM
  TGI: > 82.5 µM
